According to patent US11980594B2, “Composition and method for treating a drug-resistant cancer” (NOVELWISE PHARMACEUTICAL CORPORATION, priority 2021, dated 2024):
Read-outs that look alike come from different tables or passages of the source.

Experiments:
HCT116 cells = assay: CRC cell proliferation assay (CCK8), HCT116; type: cell-based; settings: Homo sapiens
Protocol: Three CRC cell lines HT29, HCT116 and RKO were used in this study. The American Type Culture Collection (ATCC; Manassas, Va., USA) provided human CRC cell lines HT29 (ATCC HTB-38; mutant TP53, p.R273H; APC frame shift, p. E1554fs; wild type β-catenin), HCT116 (ATCC CCL-247; wild type TP53; wild type APC; deletion β-catenin, p. S45del) and RKO (ATCC CRL-2577; wild type TP53; wild type APC; wild type β-catenin). Three CRC cells lines as listed above were cultured in adherent culture condition, maintained at 37° C. inside the cell incubation containing 5% CO2. The two cell lines of HCT-116 and HT-29 cells were cultured in McCoy's 5A medium with supplemented 10% fetal bovine serum (Gibco; Thermo Fischer Scientific, Grand Island, N.Y., USA)), 1% penicillin and 1% streptomycin. RKO cell was cultured in MEM medium with supplemented 10% FBS, 1% penicillin, 1% streptomycin and 1% sodium pyruvate. The cell cultures were passaged by trypsinization every three days. BM-BMX (BMX), (E)-2-(4-Methoxybenzyloxy)-3-prenyl-4-methoxy-N-hydroxycinamide, was provided by Nature Wise Biotech & Medicals Corporation (Taipei, Taiwan).
We plated 4000 CRC cells per well in 96-well plates and allowed them to adhere overnight. To validate cell line responsiveness to BMX and TMZ monotherapy, the cells were treated with different doses of BMX or TMZ for 24, 48, and 72 hrs. To confirm cell responsiveness to the BMX-TMZ combination, cells were either treated with different doses of TMZ ([…]) with or without BMX (5 μM) for 24, 48, and 72 hrs or with different doses of BMX (0-10 μM) with or without TMZ (50 μM) for 24, 48, and 72 hrs. Following treatment, the absorption value was measured using a CCK8 kit (Targetmol, Shanghai, China) at the indicated time points. The results are reported as the mean±standard deviation of at least three replicates.

RKO cells = assay: Clonogenic (colony formation) assay, RKO; type: cell-based; settings: Homo sapiens, 336 h, 14 days, read-out: IC50 values of TMZ, clonogenic assay
Protocol: For the anchorage-dependent growth assay, 1000 cells were resuspended in the medium and seeded in 6-well plates. […] After 14 days, the media were removed and the cells were washed and fixed with 4% paraformaldehyde for 30 min, and stained with 0.1% crystal violet for 20 min at 25° C. The intensity of crystal violet was quantified by the absorbance of 570 nm after dissolving the stained cells with dimethyl sulfoxide (DMSO). The results are expressed as the average colony±SE from three independent experiments.

P62 and LC3-II = assay: Western blot of autophagy markers in CRC cells; type: cell-based, human; settings: HT29, HCT116 and RKO cells; BMX (5 and 10 μM) with or without 50 μM TMZ; FIG. 18A
Protocol: Western blot analysis was used to examine the indicated protein expression levels under various concentrations of BMX (0-10 μM), and SAHA, VPA or PCI-34051 in the presence or absence of TMZ (50 μM) or OXP (5 μM) of the tested cell lines. SDS-PAGE and Western blot analysis was performed on lysates prepared as outlined previously. The specific primary antibodies against acetyl-histone H3 (Lys9/Lys14), acetyl-histone H4 (Lys8), P53, acetyl-p53 (Lys382), phospho-p53 (Ser15), P21, P16, MGMT, phosphor-H2AX (S139), E2F1, E2F3, Cleaved Caspase-3, Cleaved Caspase-8, Cleaved Caspase-7, Cleaved Caspase-9, PARP, Bax, Bcl-2, Bid, Bim, Bak, Puma, β-catenin, phospho-β-catenin(Ser/33/37/41), GSK3β, phospho-GSK3β (Ser 9), c-Myc, Cyclin D1, P62, LC3B, CD133, CD44, SOX-2 and HDAC8 were used for detection, and GAPDH, α-tubulin or β-actin was used as the internal control. After incubation with the primary antibodies, and then incubated with horseradish peroxidase (HRP)-conjugated secondary antibodies, the HRP signals were detected with a chemical HRP substrate. Signal of each target protein was visualized by incubation with an enhanced chemiluminescent reagent and exposure to X-ray film.

HDAC8 = biological target: T1, HDAC8 (Homo sapiens, UniProt Q9BY41); settings: statement from literature [22]; cited from earlier work
T1 sequence (Q9BY41 1-377): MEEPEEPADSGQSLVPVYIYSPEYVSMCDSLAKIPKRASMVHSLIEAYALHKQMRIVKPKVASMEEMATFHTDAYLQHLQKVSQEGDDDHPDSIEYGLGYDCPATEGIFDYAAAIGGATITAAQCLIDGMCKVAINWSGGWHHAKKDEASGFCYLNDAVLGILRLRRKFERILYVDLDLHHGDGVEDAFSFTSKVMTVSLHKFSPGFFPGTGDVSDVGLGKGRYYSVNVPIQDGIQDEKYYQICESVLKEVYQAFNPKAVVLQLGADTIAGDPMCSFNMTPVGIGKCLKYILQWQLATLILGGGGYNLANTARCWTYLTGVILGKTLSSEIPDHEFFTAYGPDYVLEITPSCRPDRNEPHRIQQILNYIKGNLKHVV

IC50 (HCT116 cells; HCT-116, 24 h, BMX 5 μM combined with different doses of TMZ, 24 hrs, read-out: IC50 of TMZ) | IC50 (HCT116 cells; HCT-116, 24 h, TMZ alone, 24 hrs, read-out: IC50 of TMZ) | IC50 (HCT116 cells; HCT-116, 48 h, BMX 5 μM combined with different doses of TMZ, 48 hrs, read-out: IC50 of TMZ) | IC50 (HCT116 cells; HCT-116, 48 h, TMZ alone, 48 hrs, read-out: IC50 of TMZ) | IC50 (HCT116 cells; HCT-116, 72 h, TMZ alone, 72 hrs, read-out: IC50 of TMZ) | IC50 (RKO cells) | IC50 (HCT116 cells; HCT-116, 24 h, BMX alone, 24 hrs, read-out: IC50 of BMX) | IC50 (HCT116 cells; HCT-116, 24 h, TMZ 50 μM combined with different concentrations of BMX, 24 hrs, read-out: IC50 of BMZ) | IC50 (HCT116 cells; HCT-116, 48 h, BMX alone, 48 hrs, read-out: IC50 of BMX) | IC50 (HCT116 cells; HCT-116, 48 h, TMZ 50 μM combined with different concentrations of BMX, 48 hrs, read-out: IC50 of BMZ) | IC50 (HCT116 cells; HCT-116, 72 h, BMX alone, 72 hrs, read-out: IC50 of BMX) | IC50 (HCT116 cells; HCT-116, 72 h, TMZ 50 μM combined with different concentrations of BMX, 72 hrs, read-out: IC50 of BMZ) | Structure (SMILES) | expression of P62 and LC3-II (P62 and LC3-II) | HDAC isoform selectivity (HDAC8)
> 400 µM | > 1000 µM | 41.6 ± 2.4 µM | 515 ± 21.6 µM | 192 ± 14.7 µM | 244 ± 29.4 µM |  |  |  |  |  |  | Cn1nnc2c(C(N)=O)ncn2c1=O [TMZ, Temozolomide, reference compound] |  | 
 |  |  |  |  |  | 24.8 ± 2.5 µM | > 10 µM | 7.7 ± 0.3 µM | 3.2 ± 0.3 µM | 1.5 ± 0.3 µM | 0.9 ± 0.1 µM | COc1ccc(COc2c(/C=C/C(=O)NO)ccc(OC)c2CC=C(C)C)cc1 [BMX, (E)-2-(4-Methoxybenzyloxy)-3-prenyl-4-methoxy-N-hydroxycinamide] | concentration-dependent increase in the expression of P62 and LC3-II | isoform-selective HDAC8 inhibitor
